Like-named read-outs stand apart in the source and are kept apart here.
Experiments:
C57BL/6J mice [1] = assay: Opioid receptor involvement in antinociception (antagonist pretreatment, tail-withdrawal assay); assay type: in vivo, mouse; settings: i.c.v. (1, 3, 4, 5 at 10 nmol, 2 at 100 nmol); pretreatment with β-FNA, nor-BNI or naltrindole
C57BL/6J mice [2] = settings: mouse, in vivo
C57BL/6J mice [3] = settings: mouse, in vivo; remark: listed apart in the source
C57BL/6J mice [4] = assay: 55 °C warm-water tail-withdrawal assay (antinociception); assay type: in vivo, mouse; parameters: key to ED50 p.o. (symbol: not calculable): ~: Maximum antinociception not achieved, precluding calculation of an ED50 value; settings: for antinociception at the highest oral dose tested: 30 mg/kg
Description: For intracerebroventricular (i.c.v.) administration the macrocyclic tetrapeptides were dissolved in dimethyl sulfoxide (DMSO), followed by addition of sterile saline (0.9%) so that the final vehicle was 50% DMSO and 50% saline, and the i.c.v. injections performed as described previously. This concentration of DMSO was not observed to have antinociceptive or behavioral effects in previous use. For per os (p.o.) administration the macrocyclic tetrapeptides were administered in 10% Solutol in 0.9% saline. All solutions for animal administration were prepared fresh daily.
The 55 °C warm-water tail-withdrawal assay was performed in mice as previously described, with the latency of the mouse to withdraw its tail from the water taken as the endpoint (a cut-off time of 15 sec was used in this assay). Antinociception was calculated according to the following formula: % antinociception = 100 × (test latency − control latency)/(15 − control latency). Tail-withdrawal data points are the means of 8–16 mice, unless otherwise indicated, with SEM shown by error bars.
All dose-response lines were analyzed by regression, and ED50 (effective dose producing 50% antinociception) values and 95% confidence intervals (C.I.) determined using individual data points from graded dose-response curves with Prism 8.0 software (GraphPad, La Jolla, CA, USA). Percent antinociception was used to determine within group effects and to allow comparison to baseline latency in tail-withdrawal experiments. The statistical significance of differences between ED50 values was determined by evaluation of the ED50 value shift via nonlinear regression modeling with Prism software. Significant differences in behavioral data were analyzed by ANOVA (one-way or two-way with repeated measures (RM), as appropriate). Significant results were further analyzed with Sidak’s, Tukey’s, or Dunnett’s multiple comparison post hoc tests, as appropriate. Data for conditioned place preference experiments were analyzed by two-way RM ANOVA, with analyses examining the main effect of conditioned place preference phase (e.g., pre- or post-conditioning) and the interaction of drug pretreatment. Significant effects were further analyzed using Sidak’s HSD post hoc testing. All data are presented as mean ± SEM, with significance set at p < 0.05.

C57BL/6J mice [5] = assay: Acute antinociceptive tolerance (tail-withdrawal assay, dosing at 0 and 8 h); settings: i.c.v.; for Fold-Shift, Naïve ED50 vs. Second ED50: 0 h vs 8 h; for ED50 (95% C.I.) Pretreated Mice: 8 h after pretreatment with ED50 dose of the same compound, * significantly different from naïve; for acute antinociceptive tolerance: ED50 at 8 h vs 0 h; for Naïve ED50 (95% C.I.): naïve C57BL/6J mice, tail-withdrawal assay
rat MOR = target: T1, rat MOR (Rattus norvegicus, UniProt P33535); assay: Radioligand equilibrium competition binding, MOR; settings: [3H]DAMGO; membranes from CHO cells expressing rat MOR; mean ± SEM, at least three experiments
T1 construct: expressed in transfected cells

rat KOR [6] = target: T2, rat KOR (Rattus norvegicus, UniProt P34975); assay: biochemical
[7] = Metabolic stability in mouse liver microsomes; assay type: in vitro ADME; settings: pH 7.4, 5 µM peptide, 0.25 mg/mL protein, with NADPH, 37 °C, read-out: t1/2 in mouse liver microsomes
Description: The macrocyclic tetrapeptide (5 µM) in 1% acetonitrile was incubated with mouse liver microsomes (0.25 mg/mL protein, Xenotech, Lenexa, KS, USA) at 37 °C in the presence or absence of co-factor NADPH RapidStart System (1 mM, Xenotech) or NADPH solution (Sigma, St. Louis, MO, USA) in potassium phosphate buffer (50 mM, pH 7.4). Aliquots (100 µL) taken at 0, 5, 15, 30, 60 and 120 min were quenched with ice-cold acetonitrile (1 vol) containing internal standard ([D-NMeAla^2]CJ-15,208 [26], 5 µM) to precipitate the proteins. The lack of endogenous interference with the analysis of the stereoisomer or internal standard was confirmed by analyzing samples lacking the macrocyclic tetrapeptide.
Following centrifugation at 10,000× g rpm for 10 min, the supernatant (50 µL) was diluted with water (75 µL), stored overnight at −20 °C and analyzed by LC-MS/MS using methodology similar to that described for [D-Trp]CJ-15,208 [32]. Liquid chromatography was performed on a Hypersil BDS C8 column (50 mm × 2.1 mm, 3 µm) with a flow rate of 0.2 mL/min and an injection volume of 20 µL using an Acquity UPLC system (Waters, Milford, MA, USA). The peptides were separated using a gradient of aqueous acetonitrile containing 0.08% formic acid of 20% B (0–2 min), 20–50% B (2–3 min), 50–80% B (3–6 min), 80% B (6–7 min), 80–20% B (7–8 min) and 20% B (8–10 min).
ESI-MS/MS was performed on a Waters Quatro triple quadrupole instrument operating in the positive ion multiple reaction monitoring mode. Data acquisition was carried out with Mass Lynx 4.1 software with the following settings: capillary voltage, 2500 V; cone voltage, 30 V; source temperature, 100 °C; desolvation temperature, 250 °C; cone gas flow, 279 L/h; desolvation gas flow, 1157 L/h; LM 1 resolution, 14; HM 1 resolution, 14; ion energy 1, 1.0; MS/MS mode entrance, -1; MS/MS collision energy, 35 eV; MS/MS mode exit, 2; LM 2 resolution, 13.0; HM 2 resolution, 13.0; ion energy 2, 1.5; multiplier, 650; collision cell pressure, 1.63 × 10^−3 mbar; collision gas, argon. The transition m/z 578.2 ([M + H]^+) → 217.2 was monitored to determine the peak area counts of the stereoisomers, and m/z 566.2 ([M + H]^+) → 232.9 was monitored to determine the peak area counts of the internal standard (collision energy 22 eV) with the following settings: dwell time, 0.3 s; delay, 0.05 s.

rat KOR [8] = target: T2, rat KOR; settings: ratio Ki(MOR)/Ki(KOR)
C57BL/6J mice [9] = settings: mouse, in vivo; remark: listed apart in the source
C57BL/6J mice [10] = system: C57BL/6J mice; parameters: key to ED50 i.c.v. (symbol: not calculable) / ED50 p.o. (symbol: not calculable): ~: Maximum antinociception not achieved, precluding calculation of an ED50 value; settings: ref [19], cited from earlier work
mouse DOR = settings: radioligand binding; ref [19]; cited from earlier work
[11] = i.c.v., C57BL/6J mice, antinociception at peak response

T1 sequence (P33535 whole entry): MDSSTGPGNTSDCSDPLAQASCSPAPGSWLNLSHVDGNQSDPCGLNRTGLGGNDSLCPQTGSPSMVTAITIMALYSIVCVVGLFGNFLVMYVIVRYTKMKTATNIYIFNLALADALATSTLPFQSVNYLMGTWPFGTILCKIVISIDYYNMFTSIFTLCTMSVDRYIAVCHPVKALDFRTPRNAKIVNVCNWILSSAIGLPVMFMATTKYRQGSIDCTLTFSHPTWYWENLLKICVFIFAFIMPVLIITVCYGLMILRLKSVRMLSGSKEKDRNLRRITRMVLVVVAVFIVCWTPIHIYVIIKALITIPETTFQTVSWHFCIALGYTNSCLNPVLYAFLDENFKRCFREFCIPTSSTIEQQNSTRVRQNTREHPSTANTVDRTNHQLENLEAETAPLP
T2 sequence (P34975 whole entry): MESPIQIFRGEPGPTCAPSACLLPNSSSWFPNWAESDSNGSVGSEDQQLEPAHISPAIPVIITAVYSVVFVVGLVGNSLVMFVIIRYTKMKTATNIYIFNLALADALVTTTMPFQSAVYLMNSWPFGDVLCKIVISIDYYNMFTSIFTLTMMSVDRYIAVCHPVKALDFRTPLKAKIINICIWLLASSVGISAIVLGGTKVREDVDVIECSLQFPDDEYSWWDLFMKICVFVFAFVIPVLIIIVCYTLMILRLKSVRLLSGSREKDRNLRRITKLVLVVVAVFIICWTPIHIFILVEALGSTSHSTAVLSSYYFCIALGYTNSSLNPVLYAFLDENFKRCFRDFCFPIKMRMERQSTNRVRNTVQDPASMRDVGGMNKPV

Compound	Receptors Involved (in antinociception) (C57BL/6J mice [1])	effect on coordinated locomotor performance (rotarod) vs vehicle (C57BL/6J mice [2])	antinociception at the highest oral dose tested (C57BL/6J mice [4]; p.o.)	time of peak antinociception (C57BL/6J mice [4]; after i.c.v. administration) [min]	duration of significant antinociception (C57BL/6J mice [4]; i.c.v. administration) [min]	ED50 (and 95% C.I.) i.c.v. (C57BL/6J mice [4]; [11])	ED50 p.o. (symbol: not calculable) (C57BL/6J mice [4]; p.o., C57BL/6J mice)	Fold-Shift, Naïve ED50 vs. Second ED50 (C57BL/6J mice [5]) [fold]	ED50 (95% C.I.) Pretreated Mice (C57BL/6J mice [5])	acute antinociceptive tolerance (C57BL/6J mice [5])	Naïve ED50 (95% C.I.) (C57BL/6J mice [5])	Ki (rat MOR) [nM]	Ki (rat KOR [6]) [µM]	half-life at 5 µM [7] [min]	Selectivity Ki (MOR) Ki (KOR) (rat KOR [8])	further results
O=C1N[C@H](Cc2c[nH]c3ccccc23)C(=O)N[C@H](Cc2ccccc2)C(=O)N2CCC[C@@H]2C(=O)N[C@H]1Cc1ccccc1 (single isomer, unassigned) [Stereoisomer 4, cyclo[D-Phe-D-Pro-Phe-D-Trp]]	KOR- and DOR-mediated	limited impairment of performance	45–60%	20	45	2.39 (1.40–4.56) nmol	~	0.54	1.28 (0.96–1.66) nmol	Neither stereoisomer 4 or 5 demonstrated any significant changes in the ED50 values	2.39 (1.40–4.56) nmol	> 10000	> 10	30		effect on respiration rate vs vehicle (C57BL/6J mice [3]): significant decreases in respiration rates; duration of significant antinociception (C57BL/6J mice [4]; p.o. administration): 30 to 40 min
O=C1N[C@@H](Cc2ccccc2)C(=O)N2CCC[C@@H]2C(=O)N[C@H](Cc2ccccc2)C(=O)N[C@H]1Cc1c[nH]c2ccccc12 (single isomer, unassigned) [Stereoisomer 2, cyclo[Phe-D-Pro-D-Phe-Trp]]	KOR- and MOR-mediated antinociception	lacked any significant effect	45–60%	30	90	20.4 (10–58.7) nmol	~	6.13	125 (89.9–224) nmol	the increase was not statistically significant	20.4 (10–58.7) nmol	3920 ± 200	0.362 ± 0.051	15	11	antinociception at the highest dose tested (C57BL/6J mice [4]; 100 nmol, i.c.v.): approximately 70%
O=C1N[C@H](Cc2ccccc2)C(=O)N2CCC[C@@H]2C(=O)N[C@H](Cc2ccccc2)C(=O)N[C@H]1Cc1c[nH]c2ccccc12 (single isomer, unassigned) [Stereoisomer 3, cyclo[D-Phe-D-Pro-D-Phe-Trp]]	KOR- and DOR-mediated	lacked any significant effect		20	45	1.00 (0.64–1.60) nmol		5.19		greater acute antinociceptive tolerance than CJ-15,208	1.00 (0.64–1.60) nmol	7780 ± 410	2.56 ± 0.48	6	3	conditioned place preference or aversion (C57BL/6J mice [9]): no significant preference or aversion; effect on ambulation vs vehicle (C57BL/6J mice [3]): elevated ambulations at several time-points; antinociceptive efficacy (C57BL/6J mice [4]; p.o.): full antinociception; time of peak antinociception (C57BL/6J mice [4]; p.o. administration): 20 to 30 min; ED50 (and 95% C.I.) p.o. (C57BL/6J mice [4]; p.o., C57BL/6J mice, antinociception at peak response): 4.12 (3.30–5.31) mg/kg
O=C1N[C@H](Cc2c[nH]c3ccccc23)C(=O)N[C@@H](Cc2ccccc2)C(=O)N2CCC[C@@H]2C(=O)N[C@H]1Cc1ccccc1 [[D-Trp]CJ-15,208, cyclo[Phe-D-Pro-Phe-D-Trp]]													0.0218 ± 0.0048		12	ED50 i.c.v. (symbol: not calculable) (C57BL/6J mice [10]; i.c.v., mice, [21]): ~; ED50 p.o. (symbol: not calculable) (C57BL/6J mice [10]; p.o., mice, [21]): ~; antinociceptive activity (C57BL/6J mice [10]): minimal antinociceptive activity; affinity for DOR (mouse DOR): negligible affinity for DOR
